Measured values published in article PMC5064235, “Structure-Based Design of Novel Tetrahydro-Beta-Carboline Derivatives with a Hydrophilic Side Chain as Potential Phosphodiesterase Inhibitors” (Scientia Pharmaceutica, 2015).

Legend:
[1] = molecular target: phosphodiesterase-5 (PDE5); conditions: previously reported tadalafil analogues, introduction; cited from earlier work
recombinant human PDE5 = molecular target: T1, recombinant human PDE5 (Homo sapiens, UniProt O76074); experiment: In vitro PDE5 inhibitory activity (IMAP FP phosphodiesterase assay); assay type: biochemical; conditions: purified PDE5, 50 nM TAMRA-cGMP, 1.5 h at 30 °C; 10 concentrations, at least two replicates; read-out: PDE5 Inhibition IC50
T1 construct: purchased BPS Biosciences, San Diego, CA, USA
Method: Phosphodiesterase Assay: 5 U/mL of purified PDE5 (BPS Biosciences, San Diego, CA, USA) was added to the wells of black 96-well non-binding plates. Immediately, the protein was treated with the compound or vehicle control and 50 nM TAMRA-cGMP and 50 nM Fluourescein-cAMP (Molecular Devices, Sunnyvale, CA, USA) were added to each assay well. The plates were incubated for 1.5 h at 30 °C. After incubation, the IMAP FP Phosphodiesterase Evaluation Assay (Molecular Devices, Sunnyvale, CA, USA) binding reagent was added to each well and the plates were incubated for an additional 30 min at 30 °C. FP was measured according to manufacturer’s specifications using a Biotech Synergy 4 plate reader. PDE activity was expressed by an IC50 value (50% inhibitory concentration). Data analysis was done through dose-response analysis, which was repeated at least twice to confirm the reproducibility of the IC50 values.
All the synthesized final THβC compounds were tested for their ability to inhibit recombinant human PDE5. Most of the compounds were evaluated in two steps. The first step was the determination of the percentage inhibition at a screening dose of 10 μM performed in triplicate. For compounds displaying a percentage of inhibition >50%, the IC50 was then determined by testing a range of 10 concentrations with at least two replicates per concentration (Table 2).

SMILES | IC50 [1] [nM] | melting point [°C] | IC50 (recombinant human PDE5) [nM]
CCN1CC(=O)N2[C@H](c3ccc(Cl)cc3)c3[nH]c4ccccc4c3C[C@@H]2C1=O [Compound 2] | 3 | – | –
CCN1CC(=O)N2[C@H](c3ccc(Br)cc3)c3[nH]c4ccccc4c3C[C@@H]2C1=O [Compound 3] | 3 | – | –
NCCN1CC(=O)N2[C@@H](c3ccc(Cl)cc3)c3[nH]c4ccccc4c3C[C@H]2C1=O [Compound 6j, (6S,12aS)-2-(2-Amino-ethyl)-6-(4-chloro-phenyl)-2,3,6,7,12,12a-hexahydro-pyrazino[1’,2’:1,6]pyrido[3,4-b]indole-1,4-dione] | – | 231 to 233 | > 10000
O=C1[C@@H]2Cc3c([nH]c4ccccc34)[C@H](c3ccc(Cl)cc3)N2C(=O)CN1CCCCO [Compound 6k, (6S,12aS)-6-(4-Chloro-phenyl)-2-(4-hydroxy-butyl)-2,3,6,7,12,12a-hexahydropyrazino[1’,2’:1,6]pyrido[3,4-b]indole-1,4-dione] | – | 227 to 229 | 2310
O=C1[C@@H]2Cc3c([nH]c4ccccc34)[C@@H](c3ccc(Cl)cc3)N2C(=O)CN1CCO [Compound 6m, (6R,12aS)-6-(4-Chloro-phenyl)-2-(2-hydroxy-ethyl)-2,3,6,7,12,12a-hexahydro-pyrazino[1’,2’:1,6]pyrido[3,4-b]indole-1,4-dione] | – | 202 to 206 | > 10000
NCCN1CC(=O)N2[C@H](c3ccc(Cl)cc3)c3[nH]c4ccccc4c3C[C@H]2C1=O [Compound 6n, (6R,12aS)-2-(2-Amino-ethyl)-6-(4-chloro-phenyl)-2,3,6,7,12,12a-hexahydro-pyrazino[1’,2’:1,6]pyrido[3,4-b]indole-1,4-dione] | – | 200 to 204 | > 10000
O=C1[C@@H]2Cc3c([nH]c4ccccc34)[C@@H](c3ccc(Cl)cc3)N2C(=O)CN1CCCCO [Compound 6o, (6R,12aS)-6-(4-Chloro-phenyl)-2-(4-hydroxy-butyl)-2,3,6,7,12,12a-hexahydropyrazino[1’,2’:1,6]pyrido[3,4-b]indole-1,4-dione] | – | 199 to 203 | 2310
